Columns and labels:
[1] = target: T1, human M1 receptor (hCHRM1) (Homo sapiens, UniProt P11229); assay: Measurement of M1 receptor positive allosteric modulator (M1PAM) activity, calcium fluorescence in CHO-K1 cells; format: cell-based; conditions: for activity (%) at 10 μM: 10 μM test compound, 100% = acetylcholine final concentration 1 μM, 0% = DMSO; for EC50: inflection point of concentration-dependent curve, in the presence of acetylcholine at EC20 concentration (final 0.8-1.0 nM), read-out: IP value
T1 construct: expressed in transfected cells
T1 sequence (P11229 1-460): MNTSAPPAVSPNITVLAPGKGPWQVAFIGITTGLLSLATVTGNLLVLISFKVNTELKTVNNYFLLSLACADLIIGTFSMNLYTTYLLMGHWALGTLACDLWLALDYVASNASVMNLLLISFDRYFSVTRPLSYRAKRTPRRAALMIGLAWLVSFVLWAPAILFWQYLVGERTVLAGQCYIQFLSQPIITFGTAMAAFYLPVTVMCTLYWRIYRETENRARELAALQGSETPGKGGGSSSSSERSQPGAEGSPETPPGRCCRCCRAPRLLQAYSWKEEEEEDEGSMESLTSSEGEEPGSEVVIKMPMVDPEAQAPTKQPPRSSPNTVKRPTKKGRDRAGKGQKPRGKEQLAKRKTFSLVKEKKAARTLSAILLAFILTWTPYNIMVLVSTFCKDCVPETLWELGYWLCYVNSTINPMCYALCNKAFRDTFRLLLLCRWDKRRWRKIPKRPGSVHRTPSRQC
Procedure: Measurement of M1 Receptor Positive Allosteric Modulator (M1PAM) Activity
The activity of a test compound in the presence of acetylcholine at EC20 concentration (final concentration 0.8-1.0 nM), which affords an action corresponding to about 20% of the maximum activity, was measured as PAM activity. The method is as follows. CHO-K1 cells stably expressing a human M1 receptor (hCHRM1) were plated on a 384-well black clear bottom plate (BD Falcon) at 5,000 cells/well, and cultured in an incubator at 37° C., 5% CO2 for 1 day. The medium in the cell plate was removed, and assay buffer A containing calcium indicator (Recording medium (DOJINDO LABORATORIES), 0.1% BSA (Wako Pure Chemical Industries, Ltd.), 2.5 μg/mL Fluo-4 AM (DOJINDO LABORATORIES), 0.08% Pluronic F127 (DOJINDO LABORATORIES), 1.25 mM probenecid (DOJINDO LABORATORIES)) was added at 30 μL/well. The cells were left standing in the incubator at 37° C., 5% CO2 for 30 min, and further left standing at room temperature for 30 min. A test compound prepared by diluting with assay buffer B (HBSS (Invitrogen), 20 mM HEPES (Invitrogen), 0.1% BSA) containing 3.2-4.0 nM acetylcholine was added at 10 μL/well, and the fluorescence was measured by FDSS/pCELL (Hamamatsu Photonics K.K.) for 1 min every for 1 second. With the definition that the amount of change in the fluorescence on addition of acetylcholine (final concentration 1 μM) is 100% and that on addition of DMSO instead of a test compound is 0%, the activity (%) of the test compound was calculated, and the inflection point in the concentration-dependent curve of the test compound was calculated as IP values.

MDR1 = target: T2, MDR1 (Homo sapiens, UniProt P08183); assay: MDR1 membrane permeability test; format: in vitro ADME; conditions: pH 7.4, efflux ratio (ER), Papp B to A / A to B, human MDR1-expressing LLC-PK1 cells, read-out: MDR1 substrate screening 1 μM (MDRSUB1)/Ratio (NUMBER)
T2 construct: expressed in transfected cells
T2 sequence (P08183 whole entry): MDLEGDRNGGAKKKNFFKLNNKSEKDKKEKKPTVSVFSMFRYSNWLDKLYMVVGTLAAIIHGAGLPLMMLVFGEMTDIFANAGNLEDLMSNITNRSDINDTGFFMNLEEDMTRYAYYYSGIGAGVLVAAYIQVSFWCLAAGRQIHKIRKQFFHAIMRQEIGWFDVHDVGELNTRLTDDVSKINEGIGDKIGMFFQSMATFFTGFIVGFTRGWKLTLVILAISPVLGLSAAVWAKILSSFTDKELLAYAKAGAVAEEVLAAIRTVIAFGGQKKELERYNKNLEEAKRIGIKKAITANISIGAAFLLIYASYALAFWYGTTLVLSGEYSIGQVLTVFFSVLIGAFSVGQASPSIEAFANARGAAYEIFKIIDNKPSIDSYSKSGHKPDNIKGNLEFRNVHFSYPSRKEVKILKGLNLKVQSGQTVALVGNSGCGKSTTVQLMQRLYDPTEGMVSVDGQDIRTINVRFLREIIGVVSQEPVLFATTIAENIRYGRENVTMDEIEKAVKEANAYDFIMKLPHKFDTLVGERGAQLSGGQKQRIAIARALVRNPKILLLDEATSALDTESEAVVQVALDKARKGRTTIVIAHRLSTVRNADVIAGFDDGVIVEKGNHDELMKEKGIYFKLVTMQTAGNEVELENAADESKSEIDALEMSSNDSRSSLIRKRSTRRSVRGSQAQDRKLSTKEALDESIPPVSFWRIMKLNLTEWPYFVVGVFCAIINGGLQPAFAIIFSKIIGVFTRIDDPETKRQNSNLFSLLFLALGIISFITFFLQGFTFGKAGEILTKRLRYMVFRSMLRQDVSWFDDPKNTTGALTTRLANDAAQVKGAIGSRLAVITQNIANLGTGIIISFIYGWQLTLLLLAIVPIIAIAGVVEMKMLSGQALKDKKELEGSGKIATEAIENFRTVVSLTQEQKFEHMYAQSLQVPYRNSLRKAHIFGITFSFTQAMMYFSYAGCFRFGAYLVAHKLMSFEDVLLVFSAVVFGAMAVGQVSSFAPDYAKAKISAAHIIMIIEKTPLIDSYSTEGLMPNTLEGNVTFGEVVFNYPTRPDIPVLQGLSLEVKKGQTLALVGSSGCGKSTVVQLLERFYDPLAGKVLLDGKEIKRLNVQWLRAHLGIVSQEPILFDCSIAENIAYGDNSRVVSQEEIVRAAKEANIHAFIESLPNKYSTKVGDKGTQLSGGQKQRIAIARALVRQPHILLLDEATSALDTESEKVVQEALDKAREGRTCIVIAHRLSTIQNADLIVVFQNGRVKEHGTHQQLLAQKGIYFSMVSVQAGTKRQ
Method in brief: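 Human MDR1-expressing LLC-PK1 cells were grown for 3 days on 96-well polyethylene terephthalate Transwell supports (0.4 μm pores, 0.143 cm^2) seeded at 3.45×10^4 cells/well. After a 30 min preincubation in M199 medium with 10 mmol/L HEPES and 1% BSA (pH 7.4), drug was added apically or basolaterally. After 1 hr at 37° C, the opposite side was sampled and analyzed by LC-MS/MS. Efflux ratio was calculated from Papp B to A versus A to B.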

Row | Compound | activity (%) at 10 μM [1] [%] | EC50 [1] [nM] | efflux ratio at 1 hr, 1 μM (MDR1)
1 | Cc1c(Cc2ccc(C(=O)NC3CS(=O)(=O)C3)c(F)c2)cc2c(=O)n([C@H]3CCOC[C@@H]3O)cnc2c1C [Example 83, 1,5-anhydro-2,3-dideoxy-3-(6-(4-((1,1-dioxidethietan-3-yl)carbamoyl)-3-fluorobenzyl)-7,8-dimethyl-4-oxoquinazolin-3 (4H)-yl)-L-threo-pentitol] | 109 | 1.5 | 19
2 | Cc1c(Cc2ccc(C(=O)NCCS(C)(=O)=O)c(F)c2)cc2c(=O)n([C@H]3CCOC[C@@H]3O)cnc2c1C [Example 84, 1,5-anhydro-2,3-dideoxy-3-(6-(3-fluoro-4-((2-(methylsulfonyl)ethyl)-carbamoyl)benzyl)-7,8-dimethyl-4-oxoquinazolin-3 (4H)-yl)-L-threo-pentitol] | 106 | 1.9 | 11
3 | CCOCCNC(=O)c1ccc(Cc2cc3c(=O)n([C@H]4CCOC[C@@H]4O)cnc3c(C)c2C)cc1F [Example 85, 1,5-anhydro-2,3-dideoxy-3-(6-(4-((2-ethoxyethyl)carbamoyl)-3-fluorobenzyl)-7,8-dimethyl-4-oxoquinazolin-3(4H)-yl)-L-threo-pentitol] | 107 | 2.1 | 10

The remaining compounds from weak to strong by EC50 [1], led by results:

Row | activity (%) at 10 μM [1] [%] | EC50 [1] [nM] | efflux ratio at 1 hr, 1 μM (MDR1) | Compound
4 | 110 | 3.1 | 7.8 | COCCCNC(=O)c1ccc(Cc2cc3c(=O)n([C@H]4CCOC[C@@H]4O)cnc3c(C)c2C)cc1F [Example 86, 1,5-anhydro-2,3-dideoxy-3-(6-(3-fluoro-4-((3-methoxypropyl)carbamoyl)benzyl)-7,8-dimethyl-4-oxoquinazolin-3(4H)-yl)-L-threo-pentitol]
5 | 111 | 2.3 | 8.7 | Cc1c(Cc2ccc(C(=O)NC3CC3)c(F)c2)cc2c(=O)n([C@H]3CCOC[C@@H]3O)cnc2c1C [Example 87, 1,5-anhydro-3-(6-(4-(cyclopropylcarbamoyl)-3-fluorobenzyl)-7,8-dimethyl-4-oxoquinazolin-3(4H)-yl)-2,3-dideoxy-L-threo-pentitol]
6 | 107 | 1.9 | 9.5 | Cc1c(Cc2ccc(C(=O)NC[C@@H]3CCCO3)c(F)c2)cc2c(=O)n([C@H]3CCOC[C@@H]3O)cnc2c1C [Example 80, 1,5-anhydro-2,3-dideoxy-3-(6-(3-fluoro-4-(((2S)-tetrahydrofuran-2-ylmethyl)carbamoyl)benzyl)-7,8-dimethyl-4-oxoquinazolin-3 (4H)-yl)-L-threo-pentitol]
